According to US12390437B2, “Itaconic acid derivatives and uses thereof intreating an inflammatory disease or a disease associated with an undesirable immune response” (Sitryx Therapeutics Limited, priority 2019, dated 2025):

System: IL-1β cytokine output from THP-1s
Assay: THP-1 AlphaLISA IL-1β cytokine assay
Assay type: cell-based, human
Conditions: Homo sapiens, THP-1, PMA-differentiated THP-1 cells, LPS 24 hr then Nigericin 1 hour; read-out: IL-1β (IC50)
How it was run: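 PMA-differentiated (72 h) THP-1 cells pretreated 30 min with compound, LPS-stimulated 24 h, then nigericin 1 h at 37 °C. Supernatant IL-1β and IL-6 by AlphaLISA; % inhibition normalised to ±LPS controls, IC50 from concentration-response curves.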

Row | SMILES | IC50 [µM]
1 | C=C(CC(=O)OC1CCCCCCC1)C(=O)OC(C)c1nnn[nH]1 (stereo not shown) [Example 133, 1-(1-(1H-tetrazol-5-yl)ethyl) 4-cyclooctyl 2-methylenesuccinate] | 14.8

System: not listed separately
Assay: Mouse pharmacokinetic study, intravenous dosing
Assay type: in vivo
Conditions: male, C57BL/6, mouse, iv; plasma, 10 mg/kg i.v., time 0.05 h; read-out: Parent compound concentration following intravenous administration
How it was run: (§1)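 Male C57BL/6 mice (6-8 weeks, fed ad libitum) received 10 mg/kg IV by tail vein in 10% DMSO/HP-β-CD vehicle, or 100 mg/kg by oral gavage in DMSO/HPMC/Tween 80. Facial-vein blood was taken at 9 time points (N=3 each) into K2EDTA; plasma concentrations were measured by LC-MS/MS.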

Row | SMILES | concentration at 0.05 h [ng/mL]
2 | C=C(CC(=O)OC1CCCCCCC1)C(=O)OC(C)c1nnn[nH]1 (stereo not shown) [Example 133, 1-(1-(1H-tetrazol-5-yl)ethyl) 4-cyclooctyl 2-methylenesuccinate] | 11000

Same assay, conditions: male, C57BL/6, mouse, iv; plasma, 10 mg/kg i.v., time 0.133 h; read-out: Parent compound concentration following intravenous administration

Row | SMILES | concentration at 0.133 h [ng/mL]
3 | C=C(CC(=O)OC1CCCCCCC1)C(=O)OC(C)c1nnn[nH]1 (stereo not shown) [Example 133, 1-(1-(1H-tetrazol-5-yl)ethyl) 4-cyclooctyl 2-methylenesuccinate] | 4570

Same assay, conditions: male, C57BL/6, mouse, iv; plasma, 10 mg/kg i.v., time 0.25 h; read-out: Parent compound concentration following intravenous administration

Row | SMILES | concentration at 0.25 h [ng/mL]
4 | C=C(CC(=O)OC1CCCCCCC1)C(=O)OC(C)c1nnn[nH]1 (stereo not shown) [Example 133, 1-(1-(1H-tetrazol-5-yl)ethyl) 4-cyclooctyl 2-methylenesuccinate] | 1950

Same assay, conditions: male, C57BL/6, mouse, iv; plasma, 10 mg/kg i.v., time 0.5 h; read-out: Parent compound concentration following intravenous administration

Row | SMILES | concentration at 0.5 h [ng/mL]
5 | C=C(CC(=O)OC1CCCCCCC1)C(=O)OC(C)c1nnn[nH]1 (stereo not shown) [Example 133, 1-(1-(1H-tetrazol-5-yl)ethyl) 4-cyclooctyl 2-methylenesuccinate] | 315

Same assay, conditions: male, C57BL/6, mouse, iv; plasma, 10 mg/kg i.v., time 1 h; read-out: Parent compound concentration following intravenous administration

Row | SMILES | concentration at 1 h [ng/mL]
6 | C=C(CC(=O)OC1CCCCCCC1)C(=O)OC(C)c1nnn[nH]1 (stereo not shown) [Example 133, 1-(1-(1H-tetrazol-5-yl)ethyl) 4-cyclooctyl 2-methylenesuccinate] | 33

Same assay, conditions: male, C57BL/6, mouse, iv; plasma, 10 mg/kg i.v., time 2 h; read-out: Parent compound concentration following intravenous administration

Row | SMILES | concentration at 2 h [ng/mL]
7 | C=C(CC(=O)OC1CCCCCCC1)C(=O)OC(C)c1nnn[nH]1 (stereo not shown) [Example 133, 1-(1-(1H-tetrazol-5-yl)ethyl) 4-cyclooctyl 2-methylenesuccinate] | < 8

Same assay, conditions: male, C57BL/6, mouse, iv; plasma, 10 mg/kg i.v., time 4 h; read-out: Parent compound concentration following intravenous administration

Row | SMILES | concentration at 4 h [ng/mL]
8 | C=C(CC(=O)OC1CCCCCCC1)C(=O)OC(C)c1nnn[nH]1 (stereo not shown) [Example 133, 1-(1-(1H-tetrazol-5-yl)ethyl) 4-cyclooctyl 2-methylenesuccinate] | < 8

Same assay, conditions: male, C57BL/6, mouse, iv; plasma, 10 mg/kg i.v., time 6 h; read-out: Parent compound concentration following intravenous administration

Row | SMILES | concentration at 6 h [ng/mL]
9 | C=C(CC(=O)OC1CCCCCCC1)C(=O)OC(C)c1nnn[nH]1 (stereo not shown) [Example 133, 1-(1-(1H-tetrazol-5-yl)ethyl) 4-cyclooctyl 2-methylenesuccinate] | < 8

Same assay, conditions: male, C57BL/6, mouse, iv; plasma, 10 mg/kg i.v., time 8 h; read-out: Parent compound concentration following intravenous administration

Row | SMILES | concentration at 8 h [ng/mL]
10 | C=C(CC(=O)OC1CCCCCCC1)C(=O)OC(C)c1nnn[nH]1 (stereo not shown) [Example 133, 1-(1-(1H-tetrazol-5-yl)ethyl) 4-cyclooctyl 2-methylenesuccinate] | < 8

System: not listed separately
Assay: Mouse pharmacokinetic study, oral administration
Assay type: in vivo
Conditions: male, C57BL/6, mouse, plasma, po, 100 mg/kg, plasma, male C57BL/6 mice, oral gavage 100 mg/kg, 0.083 h; read-out: Parent compound concentrations following oral administration, Time 0.083 h
How it was run: as §1

Row | SMILES | concentration at 0.083 h [ng/mL]
11 | C=C(CC(=O)OC1CCCCCCC1)C(=O)OC(C)c1nnn[nH]1 (stereo not shown) [Example 133, 1-(1-(1H-tetrazol-5-yl)ethyl) 4-cyclooctyl 2-methylenesuccinate] | 9360

Same assay, conditions: male, C57BL/6, mouse, plasma, po, 100 mg/kg, plasma, male C57BL/6 mice, oral gavage 100 mg/kg, 0.25 h; read-out: Parent compound concentrations following oral administration, Time 0.25 h

Row | SMILES | concentration at 0.25 h [ng/mL]
12 | C=C(CC(=O)OC1CCCCCCC1)C(=O)OC(C)c1nnn[nH]1 (stereo not shown) [Example 133, 1-(1-(1H-tetrazol-5-yl)ethyl) 4-cyclooctyl 2-methylenesuccinate] | 9940

Same assay, conditions: male, C57BL/6, mouse, plasma, po, 100 mg/kg, plasma, male C57BL/6 mice, oral gavage 100 mg/kg, 0.5 h; read-out: Parent compound concentrations following oral administration, Time 0.5 h

Row | SMILES | concentration at 0.5 h [ng/mL]
13 | C=C(CC(=O)OC1CCCCCCC1)C(=O)OC(C)c1nnn[nH]1 (stereo not shown) [Example 133, 1-(1-(1H-tetrazol-5-yl)ethyl) 4-cyclooctyl 2-methylenesuccinate] | 4270

Same assay, conditions: male, C57BL/6, mouse, plasma, po, 100 mg/kg, plasma, male C57BL/6 mice, oral gavage 100 mg/kg, 1 h; read-out: Parent compound concentrations following oral administration, Time 1 h

Row | SMILES | concentration at 1 h [ng/mL]
14 | C=C(CC(=O)OC1CCCCCCC1)C(=O)OC(C)c1nnn[nH]1 (stereo not shown) [Example 133, 1-(1-(1H-tetrazol-5-yl)ethyl) 4-cyclooctyl 2-methylenesuccinate] | 1100

Same assay, conditions: male, C57BL/6, mouse, plasma, po, 100 mg/kg, plasma, male C57BL/6 mice, oral gavage 100 mg/kg, 2 h; read-out: Parent compound concentrations following oral administration, Time 2 h

Row | SMILES | concentration at 2 h [ng/mL]
15 | C=C(CC(=O)OC1CCCCCCC1)C(=O)OC(C)c1nnn[nH]1 (stereo not shown) [Example 133, 1-(1-(1H-tetrazol-5-yl)ethyl) 4-cyclooctyl 2-methylenesuccinate] | 527

Same assay, conditions: male, C57BL/6, mouse, plasma, po, 100 mg/kg, plasma, male C57BL/6 mice, oral gavage 100 mg/kg, 4 h; read-out: Parent compound concentrations following oral administration, Time 4 h

Row | SMILES | concentration at 4 h [ng/mL]
16 | C=C(CC(=O)OC1CCCCCCC1)C(=O)OC(C)c1nnn[nH]1 (stereo not shown) [Example 133, 1-(1-(1H-tetrazol-5-yl)ethyl) 4-cyclooctyl 2-methylenesuccinate] | 799

Same assay, conditions: male, C57BL/6, mouse, plasma, po, 100 mg/kg, plasma, male C57BL/6 mice, oral gavage 100 mg/kg, 6 h; read-out: Parent compound concentrations following oral administration, Time 6 h

Row | SMILES | concentration at 6 h [ng/mL]
17 | C=C(CC(=O)OC1CCCCCCC1)C(=O)OC(C)c1nnn[nH]1 (stereo not shown) [Example 133, 1-(1-(1H-tetrazol-5-yl)ethyl) 4-cyclooctyl 2-methylenesuccinate] | 146

Same assay, conditions: male, C57BL/6, mouse, plasma, po, 100 mg/kg, plasma, male C57BL/6 mice, oral gavage 100 mg/kg, 8 h; read-out: Parent compound concentrations following oral administration, Time 8 h

Row | SMILES | concentration at 8 h [ng/mL]
18 | C=C(CC(=O)OC1CCCCCCC1)C(=O)OC(C)c1nnn[nH]1 (stereo not shown) [Example 133, 1-(1-(1H-tetrazol-5-yl)ethyl) 4-cyclooctyl 2-methylenesuccinate] | 101

Same assay, conditions: male, C57BL/6, mouse, plasma, po, 100 mg/kg, plasma, male C57BL/6 mice, oral gavage 100 mg/kg, 24 h; read-out: Parent compound concentrations following oral administration, Time 24 h

Row | SMILES | concentration at 24 h [ng/mL]
19 | C=C(CC(=O)OC1CCCCCCC1)C(=O)OC(C)c1nnn[nH]1 (stereo not shown) [Example 133, 1-(1-(1H-tetrazol-5-yl)ethyl) 4-cyclooctyl 2-methylenesuccinate] | < 8
